Laboratory results reported in ChEMBL document CHEMBL3526040, “Immune-mediated agranulocytosis caused by the cocaine adulterant levamisole: a case for reactive metabolite(s) involvement” (Drug Metab Dispos, 2012).

Tests used:
[1] = Drug excretion in human urine treated with [3H]-levamisole at 150 mg, po; format: ADME, tissue-based; conditions: in vivo
[2] = AUC in male human at 150 mg, po; conditions: plasma
[3] = Tmax in female human at 150 mg, po; conditions: in vivo
in vivo [4] = conditions: dog, po, 10 mg/kg
Description: Tmax in fasted dog at 10 mg/kg, po

[5] = Plasma clearance in male human at 150 mg, po
in vivo [6] = conditions: dog, plasma, po, 10 mg/kg
Description: AUC in fed dog at 10 mg/kg, po

[7] = Cmax in male human at 150 mg, po; conditions: in vivo
in vivo [8] = conditions: dog, po, 10 mg/kg; remark: listed apart in the source
Description: Tmax in fed dog at 10 mg/kg, po

in vivo [9] = conditions: dog, po, 10 mg/kg; remark: listed apart in the source
Description: Oral bioavailability in fasted dog at 10 mg/kg

in vivo [10] = conditions: dog, plasma, iv, 10 mg/kg
Description: AUC in dog at 10 mg/kg, iv

in vivo [11] = conditions: dog, po, 10 mg/kg; remark: listed apart in the source
Description: Oral bioavailability in fed dog at 10 mg/kg

[12] = Renal clearance in human at 150 mg, po; conditions: in vivo
[13] = Half life in blood (unknown origin)
in vivo [14] = conditions: dog, po, 10 mg/kg; remark: listed apart in the source
Description: Elimination half life in fed dog at 10 mg/kg, po

[15] = Elimination half life in human at 150 mg, po; conditions: in vivo
in vivo [16] = conditions: dog, iv, 10 mg/kg
Description: Elimination half life in dog at 10 mg/kg, iv

[17] = Elimination half life in male human at 150 mg, po; conditions: in vivo
[18] = Oral bioavailability in female human at 150 mg; conditions: in vivo
[19] = Tmax in male human at 150 mg, po; conditions: in vivo
[20] = Cmax in human at 150 mg, po; conditions: in vivo
[21] = Renal excretion in human at 150 mg, po; conditions: urine
[22] = AUC in female human at 150 mg, po; conditions: plasma
[23] = Cmax in female human at 150 mg, po; conditions: in vivo
in vivo [24] = conditions: dog, po, 10 mg/kg; remark: listed apart in the source
Description: Elimination half life in fasted dog at 10 mg/kg, po

[25] = Renal clearance in female human at 150 mg, po; conditions: in vivo
[26] = Elimination half life in female human at 150 mg, po; conditions: in vivo
[27] = Tmax in human at 150 mg, po; conditions: in vivo
[28] = Plasma clearance in human at 150 mg, po
in vivo [29] = conditions: dog, po, 10 mg/kg; remark: listed apart in the source
Description: Cmax in fasted dog at 10 mg/kg, po

[30] = AUC in human at 150 mg, po; conditions: plasma
[31] = Plasma clearance in female human at 150 mg, po
in vivo [32] = conditions: dog, po, 10 mg/kg; remark: listed apart in the source
Description: Cmax in fed dog at 10 mg/kg, po

[33] = Renal clearance in male human at 150 mg, po; conditions: in vivo
in vivo [34] = conditions: dog, plasma, iv, 10 mg/kg; remark: listed apart in the source
Description: Plasma clearance in dog at 10 mg/kg, iv

[35] = Volume of distribution at steady state in dog at 10 mg/kg, iv; conditions: in vivo
[36] = Oral bioavailability in male human at 150 mg; conditions: in vivo
in vivo [37] = conditions: dog, plasma, po, 10 mg/kg; remark: listed apart in the source
Description: AUC in fasted dog at 10 mg/kg, po

[38] = Oral bioavailability in human at 150 mg; conditions: in vivo

## Oc1ccc([C@H]2CN3CCSC3=N2)cc1
[1]
  Drug excretion: 25%

## c1ccc([C@H]2CN3CCSC3=N2)cc1 [LEVAMISOLE]
[2]
  AUC: 3070 ng·h/mL
[3]
  Tmax: 1.1 h
In vivo [4]
  Tmax: 1.8 h
[5]
  CL/F: 8.25 mL/min/kg
In vivo [6]
  AUC: 8940 ng·h/mL
[7]
  Cmax: 672 ng/mL
In vivo [8]
  Tmax: 4.5 h
In vivo [9]
  bioavailability: 64%
In vivo [10]
  AUC: 18100 ng·h/mL
In vivo [11]
  bioavailability: 44%
[12]
  CL renal: 29.2 mL/min
[13]
  half-life: < 6 h
In vivo [14]
  half-life: 1.6 h
[15]
  half-life: 5.6 h
In vivo [16]
  half-life: 1.8 h
[17]
  half-life: 5.4 h
[18]
  bioavailability: 64.7%
[19]
  Tmax: 1.7 h
[20]
  Cmax: 717 ng/mL
[21]
  dose excreted: 3%
[22]
  AUC: 3070 ng·h/mL
[23]
  Cmax: 820 ng/mL
In vivo [24]
  half-life: 1.3 h
[25]
  CL renal: 25 mL/min
[26]
  half-life: 5.9 h
[27]
  Tmax: 1.5 h
[28]
  CL/F: 8.04 mL/min/kg
In vivo [29]
  Cmax: 3330 ng/mL
[30]
  AUC: 3070 ng·h/mL
[31]
  CL/F: 7.56 mL/min/kg
In vivo [32]
  Cmax: 1980 ng/mL
[33]
  CL renal: 31 mL/min
In vivo [34]
  clearance: 8.92 mL/min/kg
[35]
  Vd: 1.42 L/kg
[36]
  bioavailability: 61.5%
In vivo [37]
  AUC: 12200 ng·h/mL
[38]
  bioavailability: 62.5%

## O=C(O)[C@H]1O[C@@H](Oc2ccc([C@H]3CN4CCSC4=N3)cc2)[C@H](O)[C@@H](O)[C@@H]1O
[1]
  Drug excretion: 25%
